Reference: PMC9646836, “Tetrahydroquinolinone derivatives exert antiproliferative effect on lung cancer cells through apoptosis induction” (Scientific Reports, 2022)

What was measured:
HEK293 = experiment: MTT cell viability assay, HEK293 normal kidney cells; assay type: cell-based, human; conditions: for IC50: MTT, 72 h, normal kidney cells, mean ± SD, n = 3
Description: (§1) All new tetrahydroquinoline derivatives were assessed for cytotoxicity on a broad panel of cancer and normal cell lines, using the MTT assay. The half-inhibitory growth inhibitory concentration (IC50) values of each compound were calculated after 72 h of treatment and presented in Table 1. […] In this assay, the IC50 value of 5-FU and ETP was recorded as a positive control.
(§2) Non-small cell lung cancer cells A549 (CCL-185), breast cancer cells MCF-7 ([…]), hepatocarcinoma cells HepG2 ([…]), normal kidney cells HEK293 (CRL-1573), and osteosarcoma cells U-2 OS (HTB-96) were obtained from the American Type Culture Collection. HCT-116 cell line was kindly provided by prof. Bert Vogelstein (Johns Hopkins University, Howard Hughes Medical Institute, USA). The obtained A549 and MCF-7 cells were cultured in RPMI-1640 medium, HepG2 cells in Minimum Essential Medium Eagle medium, HEK-293 cells in Dulbecco’s Modified Eagle’s medium, and U-2 OS and HCT-116 cells in McCoy’s […] medium. All culture media were supplemented with 10% fetal bovine serum, 2 mM L-glutamine, and antibiotics (penicillin 62.6 µg/ml and streptomycin 40 µg/ml; Sigma-Aldrich). Both cancer and normal cells were cultured at 37 °C under a humidified atmosphere with 5% or 10% CO2 and routinely screened for Mycoplasma contamination. All materials and reagents were obtained from Corning unless stated otherwise.
(§3) The cytotoxic effect of the synthesized compounds was assessed by the MTT (4,5-dimethylthiazol-2-yl-2,5-diphenyltetrazoliumbromide; Sigma-Aldrich) assay. Briefly, the cells were seeded into 96-well transparent flat-bottom plates and allowed to attach overnight. On the next day, the cells were treated with compounds in the range of 0–50 µM for 72 h. Dimethyl sulfoxide (DMSO; Merck) and 5-fluorouracil (5-FU; Sigma-Aldrich) were used as a reference. After exposure to the compounds, 20 μl of the MTT solution at a concentration of 4 mg/ml was added to each well, and the plates were incubated again for 2–3 h at 37 °C. Next, the media in the wells was replaced with 100 μl DMSO to solubilize the formazan crystals. The absorbance was measured at 540 nm using an ASYS UVM340 microplate reader (Biochrom Ltd.). The IC50 value of the compounds was calculated using GraphPad Prism 9 software, based on the curves plotted with survival as a function of dose, averaged from three independent experiments.

[1] = tested on: tested cell lines (HCT-116, A549, MCF-7, HepG2, Hela, HEK293); experiment: MTT assay, broad panel of cancer and normal cell lines; assay type: cell-based; conditions: range of 0–50 µM, 72 h
Description: as §1, §3

MCF-7 = experiment: MTT cell viability assay, MCF-7; assay type: cell-based, human; conditions: mean ± SD, n = 3
Description: as §1, §2, §3

A549 = experiment: MTT cell viability assay, A549; assay type: cell-based, human; conditions: mean ± SD, n = 3
Description: as §1, §2, §3

HepG2 = experiment: MTT cell viability assay, HepG2; assay type: cell-based; conditions: mean ± SD, n = 3
Description: as §1, §2, §3

Hela = experiment: MTT cell viability assay, Hela; assay type: cell-based; conditions: 72 h, mean ± SD, n = 3
Description: as §1, §3

HCT-116 = experiment: MTT cell viability assay, HCT-116; assay type: cell-based, human; conditions: mean ± SD, n = 3
Description: as §1, §2, §3

IC50 (MCF-7; Homo sapiens, MCF7, 72 h) [µM]	IC50 (A549; Homo sapiens, A549, 72 h) [µM]	IC50 (HepG2; Homo sapiens, HepG2, 72 h) [µM]	IC50 (Hela; Homo sapiens, HeLa) [µM]	IC50 (HCT-116; Homo sapiens, HCT-116, 72 h) [µM]	IC50 (HCT-116; 72 h) [µM]	IC50 (MCF-7; 72 h) [µM]	IC50 (A549; 72 h) [µM]	IC50 (HepG2; 72 h) [µM]	IC50 (Hela) [µM]	Structure (SMILES)	IC50 (HEK293; Homo sapiens, HEK293) [µM]	effect on the tested cell lines [1]	suppressive effect on human normal HEK293 kidney cells (HEK293; tested concentrations, compared to A549 and HCT-116)	IC50 (HEK293) [µM]
> 50	> 50	> 50	> 50	> 50	–	–	–	–	–	O=c1[nH]c2c(c(-c3ccccc3)c1Cc1ccc3ccccc3c1)CCCC2 [Compound 4b, 3-(2-naphthylmethyl)-4-phenyl-5,6,7,8-tetrahydro-1H-quinolin-2-one]	> 50	did not have any effect	–	–
> 50	> 50	> 50	> 50	> 50	–	–	–	–	–	O=c1[nH]c2c(c(-c3ccccc3)c1Cc1ccc(-c3ccccc3)cc1)CCCC2 [Compound 4c, 4-phenyl-3-[(4-phenylphenyl)methyl]-5,6,7,8-tetrahydro-1H-quinolin-2-one]	> 50	did not have any effect	–	–
> 50	> 50	> 50	> 50	> 50	–	–	–	–	–	O=c1[nH]c2c(c(-c3ccccc3)c1Cc1cccc(-c3ccccc3)c1)CCCC2 [Compound 4d, 4-phenyl-3-[(3-phenylphenyl)methyl]-5,6,7,8-tetrahydro-1H-quinolin-2-one]	> 50	did not have any effect	–	–
> 50	> 50	> 50	> 50	> 50	–	–	–	–	–	O=c1[nH]c2c(c(-c3ccccc3)c1Cc1ccc(C(F)(F)F)cc1)CCCC2 [Compound 4e, 4-phenyl-3-[[4-(trifluoromethyl)phenyl]methyl]-5,6,7,8-tetrahydro-1H-quinolin-2-one]	> 50	did not have any effect	–	–
> 50	> 50	> 50	> 50	~13	13.1 ± 0.96	–	–	–	–	Clc1nc2c(c(-c3ccccc3)c1Cc1cccc3ccccc13)CCCC2 [Compound 5, 2-chloro-3-(1-naphthylmethyl)-4-phenyl-5,6,7,8-tetrahydroquinoline]	> 50	–	–	–
8.41 ± 0.98	–	13.1 ± 0.32	11.1 ± 1.53	5.78 ± 0.38	–	–	–	–	–	O=c1[nH]cc(F)c(=O)[nH]1 [Compound 5-FU, 5-fluorouracil, reference compound]	16.8 ± 0.34	–	–	–
> 50	40.2 ± 0.94	> 50	50	~13	15.6 ± 1.29	–	–	–	–	COc1nc2c(c(-c3ccccc3)c1Cc1cccc3ccccc13)CCCC2 [Compound 6, 2-methoxy-3-(1-naphthylmethyl)-4-phenyl-5,6,7,8-tetrahydroquinoline]	> 50	–	almost no suppressive effect	–
–	–	–	–	–	0.39 ± 0.01	0.83 ± 0.15	0.54 ± 0.21	5.01 ± 0.22	3.4 ± 0.51	COc1cc([C@@H]2c3cc4c(cc3[C@@H](O[C@@H]3O[C@@H]5CO[C@@H](C)O[C@H]5[C@H](O)[C@H]3O)[C@H]3COC(=O)[C@H]23)OCO4)cc(OC)c1O [ETP, reference compound]	–	–	–	1.91 ± 0.97
